Patent US20120172375A1, “COMPOUNDS AND METHODS OF PROMOTING OLIGODENDROCYTE PRECURSOR DIFFERENTIATION” (priority 2008, published 2012)
Where “and” joins values, the source holds several entries; their conditions need not be identical. Identical values can stand only once. Entries after “also recorded” stand apart in the source; their conditions may differ. Like-named read-outs stand apart in the source and are kept apart here.

Tests used:
[1] = tested on: oligodendrocyte progenitor cells; assay: Cell toxicity and viability (MTT, cell death); assay type: cell-based, mouse; details: for cell toxicity and viability: concentrations below 50 μM
Method: Differentiation induced by selected compounds was further validated by fluorescence microscopy in cells generated from our Plp-EGFP transgenic mouse. Increased fluorescence in treated oligodendrocyte progenitor was indicative of cell maturation and was again scored following the same scale. 13 positive compounds were identified after secondary screening (FIG. 1). These were analyzed for cell toxicity assays by MTT were yellow 3-(4,5-Dimethylthiazol-2-yl)-2,5-diphenyltetrazolium bromide, a tetrazole (MTT) is reduced to purple formazan in the mitochondria of living cells, showing a solution color change measurable by OD620-590 (Data not shown). Further oligodendrocyte progenitor maturation in response to selected compounds was assessed by induction of myelin protein expression as determined by immunocytochemistry and western blot.

Akt = Akt activity in cell extracts of oligodendrocyte precursors (phosphorylation of Akt substrate GSKα/β); assay type: cell-based; details: 10 μM, 48 h
Description: Oligodendrocyte precursor differentiation requires the activation of a complex, highly controlled machinery that signals cells to stop migrating/proliferating and start extending processes and producing myelin components. A number of inducers and intracellular mediators of this process have been identified in vitro and in viva. […] Therefore, we studied whether our selected small molecules induced Akt signaling in oligodendrocyte precursors. We analyzed Akt activity in cell extracts of oligodendrocyte precursors treated with selected compounds (10 μM, 48 h), as determined by phosphorylation of Akt substrate GSKα/β.

[2] = tested on: oligodendrocyte progenitor cells; assay: Western blot for myelin proteins PLP/DM20 and CNPase in treated oligodendrocyte progenitor cells; assay type: cell-based, mouse; details: for induction of PLP/DM20 and CNPase expression at low concentrations: 0.01 and 0.1, 48 hrs (FIG. 2); for EC50: Mus musculus, Oligodendrocyte progenitor cell
Method: Oligodendrocyte progenitors were generated from embryonic neural progenitors growing in cell aggregates known as neurospheres (Nphs). Nph were prepared from embryos at 14.5 days of gestation obtained from timed pregnant females of either wild type mice or the proteolipid protein-enhanced-green fluorescence protein (Plp-EGFP) transgenic mouse. In brief, after separation of meninges and cerebellum, cerebrum tissue was mechanically triturated with a 1 ml Gilson pipette until total tissue disaggregation was achieved, filtered through a 70 μm cell strainer (Fisher Scientific, Pittsburg, Pa.) and plated in 25 cm^2 plastic culture flasks (2 brains/flask). Nph proliferation media (NPM) was DMEM/F12, B27 neuronal supplement (Gibco, Baltimore, Md.) and 10 ng/ml EGF (Sigma, St. Louis, Mo.). After 48-72 hr, floating Nphs were passaged at a 1:3 ratio in the same medium every 3-4 days. To generate oligodendrocyte progenitors, single cells suspensions were obtained by chemical disgregation with the mouse NeuroCult dissociation kit (StemCell Technologies, Alberta, Canada). The single cell suspension was filtered through a 70 μm cell strainer and plated on 96-well poly-D-Lysine (PDL)-coated plates at a cell density of 1.5×10^4 cells/cm^2. Cells were maintained in NPM supplemented with 10 ng/ml PDGF/bFGF instead of EGF. Bipolar, oligodendrocyte progenitor cells were observed 24 hours after plating. At the Moment of treatment to induce oligodendrocyte progenitor differentiation, the media was changed to OPC differentiation media containing NPM with a 1:10 dilution of PDGF/FGF.
For myelin protein analyses, cells were grown on 100 mm culture plates and after exposure to small molecules or controls were washed twice with ice-cold PBS. RIPA lysis buffer was added to the plates and the cells were scraped, collected and disrupted with a homogenizer on ice. Cell homogenates were then centrifuged at 6,000×g, 10 min, 4° C. and supernatants separated in a fresh tube. After adding Laemli loading buffer, proteins were denaturized at 70° C. for 10 mm and loaded in gradient gels (4-20, Criterion, BioRad, Calif.). Electroforetically separated proteins were electro-transferred to nitrocellulose membranes in a semi-dry apparatus and unspecific bonds were blocked with IRdye blocking solution for at least 1 hr at RT. After washing twice with TBS-T, primary antibodies were added and incubated over night at 4° C. Membranes were incubated with secondary, IRdye-infrared conjugated antibodies for 1 hr at RT and visualized on the Odyssey scanner.
The primary screening to select positive compounds was performed at a standard concentration of 10 μM with cell morphology analysis 48 hrs after treatment. Dose response curves at 48 hrs treatment time were performed to determine the minimum concentration compounds A, A-7 and B needed to induce cell maturation. We assessed oligodendrocyte differentiation by cell morphology changes, green fluorescence in cells generated from or Plp-EGFP transgenic mouse, immunostaining for myelin proteins and western blot for expression of the oligodendrocyte markers PLP/DM20 and 2′,3′, cyclic nucleotide 3′ phosphohydrolase (CNPase). EC50 values were also calculated based on results of western blot for myelin proteins and subsequent band densitometry analysis. Additionally, we followed cell differentiation induced over long time exposure to compounds A and B (7 days, 0.1-10 μM).

[3] = tested on: cuprizone-fed C57B1/6J mice; assay: Remyelination after cuprizone-mediated demyelination, Black and Gold staining for total myelin; assay type: in vivo; details: i.p., two doses; for remyelination effect (Black and Gold stain, corpus callosum): 5-100 mg/kg
Method: For in vivo experiments in mice, the cuprizone-mediated demyelination model was implemented as described elsewhere, (Sun et al., 2006; Wu et al., 2008). In brief, 9 week-old C57B1/J6 mice were fed with cuprizone supplemented chow (0.3%, Harlan) during 4-6 weeks. At the end of this period, while the mice were still on cuprizone diet, the animals were injected I.P. with the indicated concentrations of small molecules dissolved in DMSO. 72 hrs later, a second dose was administered and at that point the food was changed to regular chow. 48 hr after the second dose, the animals were sacrificed perfused with 4% paraformaldehyde (PFH) and the brain tissue processed or immunohistochemistry.
Brain tissue staining with Black and Gold to detect total myelin was performed in 30 μm microtome floating sections after three washes in a saline solution (0.9% NaCl). Subsequently, the tissue sections were submerged in a 0.1% Black and Gold solution in saline preheated to 60° C. for 5 min. The tissue was incubated in that solution for 8-10 min. or until achievement of purple color was observed. After washing several times with saline, the staining was fixed with a solution of 2% sodium thiosulfate for 3 min., washed with saline three times and finally mounted and visualized.
Demyelination in mouse brain induced by the copper chelator cuprizone administered in the diet is a well established animal model to study demyelination and subsequent remyelination after cuprizone withdrawal. The effect of cuprizone is evident in several brain areas being the demyeliantion of the corpus callosum the most reliable and consistent. In this study, we analyzed the effect of compounds A, A-7 and B on remyelination of six week cuprizone-fed C57B1/6J mice. Compounds were administered i.p. at the end of the sixth week (5-100 mg/kg) while the mice were still maintained on the cuprizone diet for three more days. At that point, a second injection of compounds was performed and then the mice were returned to regular chow for two more days to allow the natural remyelination process to take place. Mice were then sacrificed and the brain tissue prepared for immunohistochemistry.

[4] = 48 hrs, read-out: EC50 for CNPase expression (western blot)
[5] = 48 hrs, read-out: EC50 for PLP/DM20 expression (western blot)

Compound | cell toxicity and viability [1] | Akt phosphorylation (Akt) | induction of PLP/DM20 and CNPase expression at low concentrations [2] | low concentration at which increased expression of the major myelin proteins is already detectable ([2]; 48 hrs) [µM] | EC50 [2, 4] [nM] | EC50 [2, 5] [nM] | PLP/DM20 Expression (WB, % of Control) ([2]; Table 3, 10 μM, 48 hrs) | PLP/DM20 Expression (WB, % of Control) ([2]; Table 4, 1 μM) | PLP/DM20 Expression (WB, % of Control) ([2]; Table 4, 10 μM) | myelin levels relative to the non-cuprizone-fed animals (Black and Gold) ([3]; 100 mg/kg) [%] | remyelination effect (Black and Gold stain, corpus callosum) [3] | myelin protein PLP/DM20 expression compared to other compounds and controls [2] | reduction of the amount necessary to induce the same effect as 10 μM compound A [2] | induction of PLP/DM20 expression relative to levels of the A treated cells ([2]; 10 μM) [%] | effect at 50 μM ([2]; 50 μM) | PLP/DM20 Expression (WB, % of Control) ([2]; Table 3, 10 μM, 48 hrs, listed as drawing 48) | concentrations with toxic effect (induction of cell death) [1] [µM] | concentrations with toxic effect (MTT cell viability) ([1]; MTT) | oligodendrocyte cell differentiation at high doses compared with control cells ([2]; 10-50 μM) | concentrations with significant/effective induction of myelin protein expression (western blot densitometry) ([2]; 48 hrs) [µM]
CCS(=O)(=O)N1CCN(C(=O)COc2ccc(-c3ccccc3)cc2)CC1 [Compound A, 1-[(4-biphenylyloxy)acetyl]-4-(ethylsulfonyl)piperazine] | did not show significant detrimental effects | clearly detected | observed | 0.1 | 10 | 23 | 195 ± 25.8 n = 6; p <0.01 % of Control | 201.2 ± 49.4 % of Control | 195.1 % of Control and 195.1 ± 25.8 % of Control | 80 | highly significant at the lowest administered dose (5 mg/kg); also recorded: enhance remyelination | – | – | – | – | – | – | – | – | –
CC(C)N1CCN(C(=O)COc2ccc(-c3ccccc3)cc2)CC1 [Compound A-7, 1-(Biphenyl-4-yloxy)acetyl-4-isopropylpiperazine] | did not show significant detrimental effects | – | observed | – | 70 | 30 | 286.8 % of Control | 263.3 % of Control and 263.3 ± 25.2 % of Control | 286.8 ± 16.5 % of Control | – | highly significant remyelination effect; also recorded: enhance remyelination | dramatic up-regulation | 1-2 orders of magnitude | 147 | slightly decreases | 286.8 ± 16.5 n = 6; p <0.01 % of Control | – | – | – | –
O=[N+]([O-])c1ccc(F)c(NS(=O)(=O)c2ccc(F)cc2)c1 [Compound B, 4-fluoro-N-(2-fluoro-5-nitrophenyl)benzenesulfonamide] | – | clearly detected | observed | – | 5 | 7 | – | – | – | – | did not detect a measurable induction of myelin recovery | – | – | – | – | – | > 10 | higher than 1 μM | did not induce higher oligodendrocyte cell differentiation | 0.01 to 1
